Results published in patent US5367078A, “3-oxadiazolyl-1,6-naphthyridine derivatives” (Dainippon Pharmaceutical Co., Ltd., priority 1992, dated 1994).

Legend:
[1] = system: pentylenetetrazole-induced clonic convulsion; assay: Activity on pentylenetetrazole-induced clonic convulsion (anti-PTZ activity); assay type: in vivo, mouse (Std-ddY male); details: Mus musculus, 2 hours before pentylenetetrazole 85 mg/kg s.c., observed 30 minutes, read-out: Number of mice having antagonistic activity/number of test mice (converted); for responders at 10 mg/kg: 10 mg/kg oral; for responders at 50 mg/kg: 50 mg/kg oral; for responders at 2 mg/kg: 2 mg/kg oral; for responders at 20 mg/kg: 20 mg/kg oral
Experimental: Experiment 2 Activity on pentylenetetrazole-induced clonic convulsion (anti-PTZ activity)
The activity on pentylenetetrazole-induced clonic convulsion of the test compound was tested according to the method of E. A. Swinyard (cf. Anticonvulsant Drugs. Mercier, J., Ed., pp. 47-65, Pergamon Press, New York (1973)). In this test, petit real-type antiepileptics and most of benzodiazepine drugs show positive results.
A test compound was administered orally to Std-ddY male mice (weight; 20-25 g, five mice/group). […] When no clonic convulsion was observed, it was determined that the test compound had antagonistic activity.

benzodiazepine receptor = assay: Benzodiazepine receptor binding assay ([^3 H]-diazepam); details: [^3 H]-diazepam 1.5 nM, rat brain crude synaptosome membrane, pH 7.4, 0° C., 20 minutes

With `COc1nnc(-c2cc3c([nH]c2=O)CCN(Cc2ccccc2C(F)(F)F)C3)o1` [Example 33] the responders at 10 mg/kg [1] was 80%.

For `Cc1cccc(CN2CCc3[nH]c(=O)c(-c4nc(C5CC5)no4)cc3C2)c1` [Example 160], the IC50 (benzodiazepine receptor) was 3.75 nM.

For `Cc1cccc(CN2CCc3[nH]c(=O)c(-c4nnc(C5CC5)o4)cc3C2)c1` [Example 81], the IC50 (benzodiazepine receptor) was 5.17 nM.

`O=c1[nH]c2c(cc1-c1nc(-c3cccs3)no1)CN(Cc1ccccc1)CC2` [Example 145] gave an IC50 (benzodiazepine receptor) of 8.64 nM.

Work on `Cc1ccc(CN2CCc3[nH]c(=O)c(-c4nnc(C5CC5)o4)cc3C2)cc1` [Example 80] yielded a responders at 50 mg/kg [1] of 80%.

Compound `CCCc1noc(-c2cc3c([nH]c2=O)CCN(Cc2ccccc2)C3)n1` [Example 147] has an IC50 (benzodiazepine receptor) of 2.5 nM.

Compound `COc1ccc(CN2CCc3[nH]c(=O)c(-c4nnc(C5CC5)o4)cc3C2)cc1` [Example 85] has a responders at 50 mg/kg [1] of 80%.

`O=c1[nH]c2c(cc1-c1noc(C3CC3)n1)CN(Cc1ccccc1)CC2` [Example 119, 6-benzyl-3-(5-cyclopropyl-1,2,4-oxadiazol-3-yl)-5,6,7,8-tetrahydro-1,6-naphthyridin-2(1H)-one] was tested, and the responders at 10 mg/kg [1] was 100% and the IC50 (benzodiazepine receptor) was 1.29 nM.

Compound `CCc1nc(-c2cc3c([nH]c2=O)CCN(Cc2ccccc2)C3)no1` [Example 120] has a responders at 10 mg/kg [1] of 90% and an IC50 (benzodiazepine receptor) of 4.4 nM.

In the case of `COc1nnc(-c2cc3c([nH]c2=O)CCN(Cc2c(F)ccc(F)c2F)C3)o1` [Example 36], the responders at 2 mg/kg [1] is reported as 100%.

`COc1nnc(-c2cc3c([nH]c2=O)CCN(Cc2ccccc2Cl)C3)o1` [Example 10] gave a responders at 20 mg/kg [1] of 100% and an IC50 (benzodiazepine receptor) of 6.95 nM.

In the case of `COc1nnc(-c2cc3c([nH]c2=O)CCN(Cc2ccccc2)C3)o1` [Example 6, 6-benzyl-3-(5-methoxy-1,3,4-oxadiazol-2-yl)-5,6,7,8-tetrahydro-1,6-naphthyridine-2(1H)-one], the responders at 50 mg/kg [1] is reported as 100% and the IC50 (benzodiazepine receptor) is reported as 9.91 nM.

Work on `CC(C)c1noc(-c2cc3c([nH]c2=O)CCN(Cc2ccccc2)C3)n1` [Example 146] yielded an IC50 (benzodiazepine receptor) of 9.11 nM.

In the case of `COc1nnc(-c2cc3c([nH]c2=O)CCN(Cc2ccccc2Br)C3)o1` [Example 26], the responders at 2 mg/kg [1] is reported as 60% and the IC50 (benzodiazepine receptor) is reported as 14.1 nM.

`CCCc1nnc(-c2cc3c([nH]c2=O)CCN(Cc2ccccc2)C3)o1` [Example 62] gave an IC50 (benzodiazepine receptor) of 13.8 nM.

Compound `COc1nnc(-c2cc3c([nH]c2=O)CCN(Cc2cccc(F)c2)C3)o1` [Example 13] has a responders at 20 mg/kg [1] of 100%.

For `COc1nnc(-c2cc3c([nH]c2=O)CCN(Cc2c(F)cccc2F)C3)o1` [Example 35], the responders at 2 mg/kg [1] was 100%.

`O=c1[nH]c2c(cc1-c1nnc(-c3cccs3)o1)CN(Cc1ccccc1)CC2` [Example 60] was tested, and the responders at 50 mg/kg [1] was 100% and the IC50 (benzodiazepine receptor) was 1.58 nM.

With `COc1nnc(-c2cc3c([nH]c2=O)CCN(Cc2ccc(Cl)cc2)C3)o1` [Example 7] the responders at 50 mg/kg [1] was 100% and the IC50 (benzodiazepine receptor) was 13.5 nM.

`C=C(C)c1nnc(-c2cc3c([nH]c2=O)CCN(Cc2ccccc2)C3)o1` [Example 111, 6-benzyl-3-(5-isopropenyl-1,3,4-oxadazol-2-yl)-5,6,7,8-tetrahydro-1,6-naphthyridin-2(1H)-one] was tested, and the responders at 50 mg/kg [1] was 100%.

`CCc1noc(-c2cc3c([nH]c2=O)CCN(Cc2ccccc2)C3)n1` [Example 142] showed a responders at 10 mg/kg [1] of 80% and an IC50 (benzodiazepine receptor) of 3.24 nM.

In the case of `O=c1[nH]c2c(cc1-c1nc(-c3ccccc3)no1)CN(Cc1ccccc1)CC2` [Example 141, 6-benzyl-3-(3-phenyl-1,2,4-oxadiazol-5-yl)-5,6,7,8-tetrahydro-1,6-naphthyridin-2(1H)-one], the IC50 (benzodiazepine receptor) is reported as 22.8 nM.

Work on `CC(C)c1nc(-c2cc3c([nH]c2=O)CCN(Cc2ccccc2)C3)no1` [Example 124] yielded a responders at 10 mg/kg [1] of 60% and an IC50 (benzodiazepine receptor) of 5.4 nM.

Compound `Cc1cc(-c2nnc(-c3cc4c([nH]c3=O)CCN(Cc3ccccc3)C4)o2)no1` [Example 66] has a responders at 50 mg/kg [1] of 100% and an IC50 (benzodiazepine receptor) of 10.1 nM.

`O=c1[nH]c2c(cc1-c1nnc(-c3ccccc3)o1)CN(Cc1ccccc1)CC2` [Example 58] showed an IC50 (benzodiazepine receptor) of 14.6 nM.

In the case of `O=c1[nH]c2c(cc1-c1nnc(C3CC3)o1)CN(Cc1cccc(Cl)c1)CC2` [Example 83], the responders at 50 mg/kg [1] is reported as 100%.

In the case of `COc1nnc(-c2cc3c([nH]c2=O)CCN(Cc2cccc(Cl)c2F)C3)o1` [Example 32], the IC50 (benzodiazepine receptor) is reported as 2.49 nM.

`O=c1[nH]c2c(cc1-c1nc(C3CC3)no1)CN(Cc1cccc(F)c1)CC2` [Example 158] showed an IC50 (benzodiazepine receptor) of 3.73 nM.

In the case of `O=c1[nH]c2c(cc1-c1nnc(-c3ccco3)o1)CN(Cc1ccccc1)CC2` [Example 64], the IC50 (benzodiazepine receptor) is reported as 4.09 nM.

For `Cc1nc(-c2cc3c([nH]c2=O)CCN(Cc2ccccc2)C3)no1` [Example 122], the responders at 10 mg/kg [1] was 100% and the IC50 (benzodiazepine receptor) was 5.96 nM.

In the case of `O=c1[nH]c2c(cc1-c1nc(C3CC3)no1)CN(Cc1ccccc1Br)CC2` [Example 155], the IC50 (benzodiazepine receptor) is reported as 6.08 nM.

`COc1nnc(-c2cc3c([nH]c2=O)CCN(Cc2cccc(F)c2F)C3)o1` [Example 29] showed an IC50 (benzodiazepine receptor) of 5.46 nM.

In the case of `COc1nnc(-c2cc3c([nH]c2=O)CCN(Cc2cc(F)ccc2Cl)C3)o1` [Example 52], the responders at 10 mg/kg [1] is reported as 100% and the IC50 (benzodiazepine receptor) is reported as 19.3 nM.

`O=c1[nH]c2c(cc1-c1nnc(C3CC3)o1)CN(Cc1ccccc1F)CC2` [Example 89] gave a responders at 50 mg/kg [1] of 100%.

In the case of `O=c1[nH]c2c(cc1-c1nc(C3CC3)no1)CN(Cc1ccccc1F)CC2` [Example 157], the IC50 (benzodiazepine receptor) is reported as 2.71 nM.

In the case of `O=c1[nH]c2c(cc1-c1nnc(C3CC3)o1)CN(Cc1ccccc1)CC2` [Example 55, 6-benzyl-3-(5-cyclopropyl-1,3,4-oxadiazol-2-yl)-5,6,7,8-tetrahydro-1,6-naphthyridin-2(1H)-one], the responders at 50 mg/kg [1] is reported as 100% and the IC50 (benzodiazepine receptor) is reported as 3.91 nM.

Work on `CCc1nnc(-c2cc3c([nH]c2=O)CCN(Cc2ccccc2)C3)o1` [Example 91] yielded a responders at 50 mg/kg [1] of 100% and an IC50 (benzodiazepine receptor) of 23.1 nM.

Work on `Cc1ccccc1CN1CCc2[nH]c(=O)c(-c3nc(C4CC4)no3)cc2C1` [Example 159] yielded an IC50 (benzodiazepine receptor) of 8.15 nM.

With `O=c1[nH]c2c(cc1-c1nc(C3CC3)no1)CN(Cc1cccc(Br)c1)CC2` [Example 156] the IC50 (benzodiazepine receptor) was 6.68 nM.

`CC(C)c1nnc(-c2cc3c([nH]c2=O)CCN(Cc2ccccc2)C3)o1` [Example 56] showed a responders at 50 mg/kg [1] of 80% and an IC50 (benzodiazepine receptor) of 35.1 nM.

In the case of `O=c1[nH]c2c(cc1-c1nnc(C(F)(F)F)o1)CN(Cc1ccccc1)CC2` [Example 115], the IC50 (benzodiazepine receptor) is reported as 50.3 nM.

Work on `O=c1[nH]c2c(cc1-c1nnc(C3CC3)o1)CN(Cc1cccc(F)c1)CC2` [Example 88] yielded an IC50 (benzodiazepine receptor) of 4.62 nM.

`CCCc1nc(-c2cc3c([nH]c2=O)CCN(Cc2ccccc2)C3)no1` [Example 125] was tested, and the IC50 (benzodiazepine receptor) was 8.63 nM.

`O=c1[nH]c2c(cc1-c1noc(-c3cccs3)n1)CN(Cc1ccccc1)CC2` [Example 123] gave an IC50 (benzodiazepine receptor) of 12.5 nM.

In the case of `COc1cccc(CN2CCc3[nH]c(=O)c(-c4nnc(C5CC5)o4)cc3C2)c1` [Example 86], the IC50 (benzodiazepine receptor) is reported as 7.91 nM.

`COc1nnc(-c2cc3c([nH]c2=O)CCN(Cc2cc(F)ccc2Br)C3)o1` [Example 38] showed a responders at 2 mg/kg [1] of 80% and an IC50 (benzodiazepine receptor) of 4.55 nM.

In the case of `O=c1[nH]c2c(cc1-c1nnc(-c3ccccc3Cl)o1)CN(Cc1ccccc1)CC2` [Example 61], the IC50 (benzodiazepine receptor) is reported as 6.25 nM.

`O=c1[nH]c2c(cc1-c1nc(C3CC3)no1)CN(Cc1ccccc1)CC2` [Example 143] showed a responders at 10 mg/kg [1] of 60% and an IC50 (benzodiazepine receptor) of 2.19 nM.

`O=c1[nH]c2c(cc1-c1nc(C3CC3)no1)CN(Cc1ccccc1Cl)CC2` [Example 152] gave an IC50 (benzodiazepine receptor) of 4.9 nM.

Work on `O=c1[nH]c2c(cc1-c1nc(C3CC3)no1)CN(Cc1cccc(Cl)c1)CC2` [Example 153] yielded an IC50 (benzodiazepine receptor) of 3.51 nM.

Work on `COc1cccc(CN2CCc3[nH]c(=O)c(-c4nnc(OC)o4)cc3C2)c1` [Example 17] yielded a responders at 20 mg/kg [1] of 60%.

With `O=c1[nH]c2c(cc1-c1nc(C3CC3)no1)CN(Cc1ccc(Cl)cc1)CC2` [Example 154] the IC50 (benzodiazepine receptor) was 11 nM.

Compound `O=c1[nH]c2c(cc1-c1nnc(C3CC3)o1)CN(Cc1ccc(Cl)cc1)CC2` [Example 82] has an IC50 (benzodiazepine receptor) of 8.98 nM.

`COc1nnc(-c2cc3c([nH]c2=O)CCN(Cc2cccc([N+](=O)[O-])c2)C3)o1` [Example 23] was tested, and the responders at 10 mg/kg [1] was 80%.

Compound `O=c1[nH]c2c(cc1-c1noc(-c3ccccc3)n1)CN(Cc1ccccc1)CC2` [Example 121] has an IC50 (benzodiazepine receptor) of 62.4 nM.
